Like-named read-outs stand apart in the source and are kept apart here.
Tests used:
[1] = tested on: HIV-1 SF-2; assay: Multiple-cycle assay, laboratory strains; format: cell-based; conditions: Human immunodeficiency virus 1; SF-2, CXCR4, MT-2
[2] = tested on: HIV-1 HXB2; assay: Multiple-cycle assay, laboratory strains; format: cell-based; conditions: Human immunodeficiency virus 1; HXB2, CXCR4, MT-2
[3] = tested on: HIV-2 CBL-20; assay: Multiple-cycle assay, laboratory strains; format: cell-based; conditions: HIV-2 CBL-20, MT-2
[4] = tested on: HIV-2 CBL-23; assay: Multiple-cycle assay, laboratory strains; format: cell-based; conditions: HIV-2 CBL-23, MT-2
[5] = tested on: subtype B gag/pr recombinant viruses; assay: Multiple-cycle Gag/Pr phenotyping assay; format: cell-based, HIV-1
[6] = target: HIV-1 protease (Human immunodeficiency virus type 1 group M subtype B, UniProt P03366); assay: HIV-1 protease assay; format: biochemical
[7] = target: WT HIV-1 VLPs, p25 to p24 (CA/SP1) cleavage (Human immunodeficiency virus type 1 group M subtype B, UniProt P03348); assay: HIV-1 VLP protease cleavage assay; format: biochemical; conditions: Western blot
[8] = target: HIV-1 Gag (WT LAI VLPs) (Human immunodeficiency virus type 1 group M subtype B, UniProt P03348); assay: [3H]BMS-955176-Gag binding (SPA)
[9] = tested on: HIV-1 subtype C clinical isolates; assay: Drug susceptibility assay using clinical isolates in PBMCs
[10] = tested on: HIV-1 group O clinical isolates; assay: as above; conditions: Human immunodeficiency virus 1, PBMC
[11] = Human immunodeficiency virus 2, read-out: EC50

C=C(C)[C@@H]1CC[C@]2(NCCN3CCS(=O)(=O)CC3)CC[C@]3(C)[C@H](CC[C@@H]4[C@@]5(C)CC=C(c6ccc(C(=O)O)cc6)C(C)(C)[C@@H]5CC[C@]43C)[C@@H]12 [BMS-955176]
EC50 [1]: 11 ± 1.5 nM | EC50 [2]: 11 ± 2 nM | EC50 [3]: completely resistant | EC50 [3, 11]: > 1200 nM | EC50 [4]: completely resistant | EC50 [4, 11]: > 1200 nM | EC50 ([5]; Human immunodeficiency virus 1, read-out: EC50 (mean), full library, None (WT), n=51): 3 nM | EC50 ([5]; Human immunodeficiency virus 1, read-out: EC50 (mean), full library, T371A/Q/N/S/TT, n=6): 4 nM | EC50 ([5]; Human immunodeficiency virus 1, read-out: EC50 (mean), full library, V362I, n=5): 5.3 nM | EC50 ([5]; Human immunodeficiency virus 1, read-out: EC50 (mean), full library, V370A + ΔT371, n=4): 12 nM | EC50 ([5]; Human immunodeficiency virus 1, read-out: EC50 (mean), full library, V370A, n=7): 2 nM | EC50 ([5]; Human immunodeficiency virus 1, read-out: EC50 (mean), full library, V370I/L/T, n=4): 3 nM | EC50 ([5]; Human immunodeficiency virus 1, read-out: EC50 (mean), full library, V370 M, n=9): 7 nM | EC50 ([5]; Human immunodeficiency virus 1, read-out: EC50 range, V362I-containing viruses, n=5): 2 to 9.4 nM | EC50 ([5]; Human immunodeficiency virus 1, read-out: EC50 range, all subtype B, n=87): 0.7 to 22 nM | EC50 ([5]; Human immunodeficiency virus 1, read-out: mean EC50, all subtype B, n=87): 3.9 ± 3.4 nM | EC50 ([5]; Human immunodeficiency virus 1, read-out: median EC50, V362I-containing viruses, n=5): 5.7 nM | EC50 ([5]; Human immunodeficiency virus 1, read-out: median EC50, WT subtype B (n=51)): 2.5 nM | EC50 ([5]; Human immunodeficiency virus 1, read-out: median EC50, all subtype B, n=87): 2.8 nM | EC50 ([5]; read-out: EC50 (mean), full library, V362I, n=5): 5 nM | IC50 [6]: > 10000 nM | inhibition of conversion of VLP p25 to p24 [7]: inhibited the conversion of HIV-1 WT VLP p25 to p24 in a dose-dependent manner | Ki [8]: 5.6 nM | Kd ([8]; Kd values, range of 5 experiments): 2.3 to 6 nM | Kd ([8]; Kd, saturation binding of [3H]BMS-955176 to LAI VLPs): 5.5 nM | EC50 ([9]; Human immunodeficiency virus 1, PBMC, PBMCs, one insensitive subtype C isolate): 1400 nM | EC50 ([9]; Human immunodeficiency virus 1, PBMC, read-out: Mean EC50 ± SD, PBMCs, C, 13 of 14 isolates): 17 ± 11 nM | EC50 ([9]; Human immunodeficiency virus 1, PBMC, read-out: Mean EC50 ± SD, PBMCs, C, 14 isolates): 116 nM | EC50 ([9]; Human immunodeficiency virus 1, PBMC, read-out: Median EC50, PBMCs, C, 13 of 14 isolates): 14 nM | EC50 ([9]; Human immunodeficiency virus 1, PBMC, read-out: Median EC50, PBMCs, C, 14 isolates): 14 nM | EC50 ([9]; Human immunodeficiency virus 1, PBMC, read-out: Range EC50, PBMCs, C, 13 of 14 isolates): 1 to 45 nM | EC50 ([9]; Human immunodeficiency virus 1, PBMC, read-out: median EC50 values, Fig 7, PBMCs, C (Group M)): 15000 nM | EC50 ([9]; read-out: Range EC50, PBMCs, C, 14 isolates): 1 to 1400 nM | EC50 ([10]; read-out: Mean EC50 ± SD, PBMCs, group O, 5 isolates): 170 ± 240 nM | EC50 ([10]; read-out: Median EC50, PBMCs, group O, 5 isolates): 30 nM | EC50 ([10]; read-out: Range EC50, PBMCs, group O, 5 isolates): 1 to 552 nM

Reference: publication PMC4914680 (Antimicrobial Agents and Chemotherapy, 2016)
